Measurements: patent US20240239755A1, “SUBSTITUTED PYRIDAZINONES, SALTS OR N-OXIDES THEREOF AND THEIR USE AS HERBICIDALLY ACTIVE SUBSTANCES” (Bayer Aktiengesellschaft, priority 2021, published 2024)

How the values were obtained:
Assay type in all cases: in vivo
[1] = test system: Digitaria sanguinalis (DIGSA); experiment: Herbicidal post-emergence action, 1280 g/ha (Table B2); details: visual assessment after ca. 3 weeks vs untreated controls
From the text: (§1) Seeds of mono- and dicotyledonous weed plants were sown in plastic pots (double sowings with one species of mono- and one species of dicotyledonous weed plants per pot), in sandy loam, covered with soil and grown under controlled growth conditions. 2 to 3 weeks after sowing, the test plants were sprayed in the single-leaf stage. The compounds according to the invention, formulated in the form of wettable powders (WP) or as emulsifiable concentrates (EC), were sprayed onto the green plant parts as an aqueous suspension or as an emulsion, with the addition of 0.5% of an additive, at an application rate of 600 litres of water per hectare (converted). The test plants were placed in the greenhouse for ca. 3 weeks under optimum growth conditions, and then the effect of the preparations was assessed visually in comparison with untreated controls (herbicidal effect in percent (%): 100% effect=plants have died, 0% effect=as control plants). Tables B1 to B11 below, show the effects of selected compounds of the general formula (I) according to Table 1 on various harmful plants using an application rate corresponding to 1280 g/ha obtained by the experimental procedure mentioned above.

[2] = test system: Abutilon theophrasti (ABUTH); experiment: Herbicidal pre-emergence action, 1280 g/ha (Table A1); details: visual grading after ca. 3 weeks vs untreated controls
Procedure, shortened: (§2)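 Pre-emergence soil-surface spray, sandy loam, mono-/dicot double sowings per pot; WP or EC formulations, aqueous, +0.5% additive, 600 L/ha water. Greenhouse, optimum conditions. Visual % damage vs untreated at ca. 3 wk (100% = dead).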

Kochia scoparia (KCHSC) [3] = experiment: Herbicidal pre-emergence action, 1280 g/ha (Table A4); details: visual grading after ca. 3 weeks vs untreated controls
Procedure, shortened: as §2

Lolium rigidum (LOLRI) [4] = experiment: Herbicidal pre-emergence action, 1280 g/ha (Table A5); details: visual grading after ca. 3 weeks vs untreated controls
Procedure, shortened: as §2

[5] = test system: Matricaria inodora (MATIN); experiment: Herbicidal pre-emergence action, 1280 g/ha (Table A6); details: visual grading after ca. 3 weeks vs untreated controls
Procedure, shortened: as §2

Stellaria media (STEME) [6] = experiment: Herbicidal pre-emergence action, 1280 g/ha (Table A9); details: visual grading after ca. 3 weeks vs untreated controls
Procedure, shortened: as §2

[7] = test system: Abutilon theophrasti (ABUTH); experiment: Herbicidal post-emergence action, 1280 g/ha (Table B1); details: visual assessment after ca. 3 weeks vs untreated controls
Procedure, shortened: (§3)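 Weeds grown in sandy loam under controlled conditions were sprayed post-emergence at the single-leaf stage, 2 to 3 weeks after sowing, with WP or EC formulations plus 0.5% additive at 600 L water/ha. Visual % damage versus untreated controls was scored after ca. 3 weeks in the greenhouse.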

Kochia scoparia (KCHSC) [8] = experiment: Herbicidal post-emergence action, 1280 g/ha (Table B4); details: visual assessment after ca. 3 weeks vs untreated controls
Procedure, shortened: as §3

Stellaria media (STEME) [9] = experiment: Herbicidal post-emergence action, 1280 g/ha (Table B9); details: visual assessment after ca. 3 weeks vs untreated controls
Procedure, shortened: as §3

Veronica persica (VERPE) [10] = experiment: Herbicidal post-emergence action, 1280 g/ha, VERPE; details: visual grading vs untreated controls
Procedure, shortened: (§4)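 Pot-grown weeds in sandy loam sprayed post-emergence at the single-leaf stage, 2–3 weeks after sowing, with WP or EC formulations plus 0.5% additive in 600 L water/ha at 1280 g/ha. After ca. 3 weeks in the greenhouse, damage scored visually as % effect versus untreated controls (100% = plants dead).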

[11] = test system: Amaranthus retroflexus (AMARE); experiment: Herbicidal post-emergence action, 1280 g/ha, AMARE; details: visual grading vs untreated controls
Procedure, shortened: as §4

[12] = test system: Matricaria inodora (MATIN); experiment: Herbicidal pre-emergence action, 320 g/ha (Table C3); details: visual grading after ca. 3 weeks vs untreated controls
From the text: (§5) Seeds of mono- and dicotyledonous weed plants were sown in plastic pots (double sowings with one species of mono- and one species of dicotyledonous weed plants per pot), in sandy loam, and covered with soil. The compounds according to the invention, formulated in the form of wettable powders (WP) or as emulsifiable concentrates (EC), were applied to the surface of the covering soil as an aqueous suspension or as an emulsion, with the addition of 0.5% of an additive, at an application rate of 600 litres of water per hectare (converted). Following treatment, the pots were placed in a greenhouse and kept under optimum growth conditions for the test plants. The visual grading of the damage to the test plants was carried out after ca. 3 weeks in comparison to untreated controls (herbicidal effect in percent (%): 100% effect=plants have died, 0% effect=as control plants). Tables C1 to C6 below, show the effects of selected compounds of the general formula (I) according to Table 1 on various harmful plants using an application rate corresponding to 320 g/ha obtained by the experimental procedure mentioned above.

Stellaria media (STEME) [13] = experiment: Herbicidal pre-emergence action, 320 g/ha, STEME; details: visual grading after ca. 3 weeks
Procedure, shortened: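 Weed seeds sown in sandy loam pots; WP or EC formulations applied pre-emergence to the covering soil surface at 320 g/ha with 0.5% additive in 600 L water/ha. Greenhouse growth; visual damage scored after ca. 3 weeks versus untreated controls (100% = plants died, 0% = as control).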

[14] = test system: Abutilon theophrasti (ABUTH); experiment: Herbicidal post-emergence action, 320 g/ha, ABUTH; details: visual grading after ca. 3 weeks
Procedure, shortened: (§6)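 Post-emergence spray at single-leaf stage; WP/EC in aqueous suspension/emulsion, 0.5% additive, 600 L water/ha. Greenhouse ~3 wk, visual rating vs untreated: 0% = as control, 100% = plants dead.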

Stellaria media (STEME) [15] = experiment: Herbicidal post-emergence action, 320 g/ha, STEME; details: visual grading after ca. 3 weeks
Procedure, shortened: as §6

[16] = test system: Amaranthus retroflexus (AMARE); experiment: Herbicidal post-emergence action, 320 g/ha, AMARE; details: visual grading after ca. 3 weeks
Procedure, shortened: as §6

[17] = test system: Amaranthus retroflexus (AMARE); experiment: Herbicidal pre-emergence action, 1280 g/ha (Table A11); details: visual grading after ca. 3 weeks vs untreated controls
Procedure, shortened: as §2

Lolium rigidum (LOLRI) [18] = experiment: Herbicidal post-emergence action, 1280 g/ha (Table B5); details: visual assessment after ca. 3 weeks vs untreated controls
Procedure, shortened: as §3

Lolium rigidum (LOLRI) [19] = experiment: Herbicidal pre-emergence action, 320 g/ha (Table C2); details: visual grading after ca. 3 weeks vs untreated controls
Procedure, shortened: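 Applied pre-emergence to the surface of soil covering weed seeds sown in sandy loam, as WP or EC formulations in water with 0.5% additive at 600 L/ha. Greenhouse-grown; damage graded visually at ca. 3 weeks as percent of untreated controls (100% = plants died).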

[20] = test system: Amaranthus retroflexus (AMARE); experiment: Herbicidal pre-emergence action, 320 g/ha, AMARE; details: visual grading after ca. 3 weeks
From the text: as §5, with “plants).” for “plants). Tables C1 to C6 below, show the effects of selected compounds of the general formula (I) according to Table 1 on various harmful plants using an application rate corresponding to 320 g/ha obtained by the experimental procedure mentioned above.”
Tables C1 to C6 below, show the effects of selected compounds of the general formula (I) according to Table 1 on various harmful plants using an application rate corresponding to 320 g/ha obtained by the experimental procedure mentioned above.

Setaria viridis (SETVI) [21] = experiment: Herbicidal pre-emergence action, 1280 g/ha (Table A8); details: visual grading after ca. 3 weeks vs untreated controls
Procedure, shortened: as §2

Poa annua (POAAN) = experiment: Herbicidal pre-emergence action, 1280 g/ha (Table A7); details: visual grading after ca. 3 weeks vs untreated controls
Procedure, shortened: as §2

[22] = test system: Matricaria inodora (MATIN); experiment: Herbicidal post-emergence action, 1280 g/ha (Table B6); details: visual assessment after ca. 3 weeks vs untreated controls
Procedure, shortened: as §3

[23] = test system: Matricaria inodora (MATIN); experiment: Herbicidal post-emergence action, 320 g/ha, MATIN; details: visual grading after ca. 3 weeks
Procedure, shortened: as §6

Veronica persica (VERPE) [24] = experiment: Herbicidal post-emergence action, 320 g/ha, VERPE; details: visual grading after ca. 3 weeks
Procedure, shortened: as §6

[25] = test system: Echinochloa crus-galli (ECHCG); experiment: Herbicidal post-emergence action, 1280 g/ha (Table B3); details: visual assessment after ca. 3 weeks vs untreated controls
From the text: as §1

Setaria viridis (SETVI) [26] = experiment: Herbicidal post-emergence action, 1280 g/ha (Table B8); details: visual assessment after ca. 3 weeks vs untreated controls
From the text: as §1

SMILES | herbicidal effect DIGSA [1] [%] | herbicidal effect LOLRI (Lolium rigidum (LOLRI) [4]) [%] | herbicidal effect MATIN [5] [%] | herbicidal effect STEME (Stellaria media (STEME) [6]) [%] | herbicidal effect ABUTH [7] [%] | herbicidal effect KCHSC (Kochia scoparia (KCHSC) [8]) [%] | herbicidal effect STEME (Stellaria media (STEME) [9]) [%] | herbicidal effect VERPE (Veronica persica (VERPE) [10]) [%] | herbicidal effect AMARE [11] [%] | herbicidal effect MATIN [12] [%] | herbicidal effect STEME (Stellaria media (STEME) [13]) [%] | herbicidal effect ABUTH [14] [%] | herbicidal effect STEME (Stellaria media (STEME) [15]) [%] | herbicidal effect AMARE [16] [%] | herbicidal effect AMARE [17] [%] | further results
Cc1nn(C)c(=O)c(Oc2ccc(F)c(Cl)n2)c1O [Example I-052] | 90 | – | – | – | – | – | – | – | – | – | – | – | – | – | – | –
Cc1nn(C)c(=O)c(Oc2cc(Cl)cc(Cl)c2)c1O [Example I-027] | – | 100 | 100 | 100 | 90 | 90 | 90 | 90 | 100 | 100 | 100 | 90 | 90 | 90 | – | herbicidal effect ABUTH [2]: 100%; herbicidal effect KCHSC (Kochia scoparia (KCHSC) [3]): 90%
Cc1nn(C)c(=O)c(Oc2cc(Cl)ccc2Br)c1O [Example I-091] | – | 100 | 100 | 100 | – | – | 90 | – | – | 90 | 100 | – | 90 | – | 100 | herbicidal effect ABUTH [2]: 90%; herbicidal effect LOLRI (Lolium rigidum (LOLRI) [18]): 90%; herbicidal effect LOLRI (Lolium rigidum (LOLRI) [19]): 100%; herbicidal effect AMARE [20]: 90%
Cc1nn(C)c(=O)c(Oc2ccc(Br)cc2)c1O [Example I-068] | 90 | – | – | – | – | 90 | – | 90 | – | – | – | – | – | – | 90 | herbicidal effect SETVI (Setaria viridis (SETVI) [21]): 90%
Cc1nn(C)c(=O)c(Oc2cc(F)ccc2Br)c1O [Example I-026] | – | 100 | 100 | 100 | 100 | 90 | 90 | 90 | 100 | 90 | 100 | 90 | – | 90 | 100 | herbicidal effect KCHSC (Kochia scoparia (KCHSC) [3]): 90%; herbicidal effect POAAN (Poa annua (POAAN)): 90%; herbicidal effect MATIN [22]: 100%; herbicidal effect LOLRI (Lolium rigidum (LOLRI) [19]): 90%; herbicidal effect MATIN [23]: 90%; herbicidal effect VERPE (Veronica persica (VERPE) [24]): 90%
Cc1nn(C)c(=O)c(Oc2ccccc2C#N)c1O [Example I-028] | – | – | 100 | 100 | – | – | – | – | 90 | 100 | 100 | – | – | – | – | herbicidal effect POAAN (Poa annua (POAAN)): 100%
CCOC(=O)Oc1c(C)nn(C)c(=O)c1Oc1ccc(F)cc1C1CC1 [Example I-034] | 90 | 100 | 100 | – | 90 | 90 | 90 | 90 | 100 | – | – | 90 | 90 | 90 | 90 | herbicidal effect ECHCG [25]: 90%; herbicidal effect LOLRI (Lolium rigidum (LOLRI) [18]): 90%; herbicidal effect MATIN [22]: 90%; herbicidal effect SETVI (Setaria viridis (SETVI) [26]): 90%
